From patent US20250161184A1, “NOVEL USE” (DSM IP Assets B.V., priority 2022, published 2025)
“Also recorded” adds a separate entry of the source.

Test system: Normal human dermal fibroblasts
Test: in vitro dermal fibroblast collagen assay (collagen 1 immunolabeling, flow cytometry)
Format: cell-based
Conditions: for Collagen 1 expression relative to untreated (%): 72 hours treatment, mean, n = 4, untreated = 100%; for effect on collagen type 1 (result in words): normal human dermal fibroblasts, 72 hours, several concentrations
Description: The neutral core human milk oligosaccharides LNT and LNnT were evaluated for their effect on collagen type 1. This was done using an in vitro dermal fibroblast collagen assay. […] For comparative reasons, also another human milk oligosaccharide was tested, i.e. 6′-silalyllactose (6′SL).
Normal human dermal fibroblasts were seeded in cell culture medium (Dulbecco's Modified Eagle Medium supplemented with 10% serum and 1% antibiotics) and allowed to adhere in a humidified cell incubator maintaining 37° C. and 5% CO2. Afterwards, the cells were starved with culture medium without serum for 16-24 hours to synchronize the cells their cell cycle. The starvation medium was removed and cell culture medium+LNT or LNnT respectively 6′SL at various concentrations was added to the cells. The cells were treated for 72 hours. The cells were then fixated and immunolabeled with antibodies specific for collagen 1. These labeled cells were analyzed using flow cytometry and compared to the untreated ones (medium without LNT respectively LNnT or 6′SL).

SMILES | Collagen 1 expression relative to untreated (%) (0.05 μM) | Collagen 1 expression relative to untreated (%) (0.10 μM) | Collagen 1 expression relative to untreated (%) (1.00 μM) | Collagen 1 expression relative to untreated (%) (50 μM) | Collagen 1 expression relative to untreated (%) (100 μM) | effect on collagen type 1 (result in words) | Collagen 1 expression relative to untreated (%) (0.50 μM)
CC(=O)N[C@H]1[C@H](O[C@H]2[C@@H](O)[C@@H](CO)O[C@@H](O[C@H]3[C@H](O)[C@@H](O)C(O)O[C@@H]3CO)[C@@H]2O)O[C@H](CO)[C@@H](O[C@@H]2O[C@H](CO)[C@H](O)[C@H](O)[C@H]2O)[C@@H]1O (mixture of isomers) [LNnT, lacto-N-neotetraose] | 117 | 129 | 167 | 172 | 177 | most active in inducing collagen synthesis; also recorded: increase collagen expression | –
CC(=O)N[C@H]1[C@H]([C@H](O)[C@H](O)CO)O[C@@](OC[C@H]2O[C@@H](O[C@H]3[C@H](O)[C@@H](O)[C@H](O)O[C@@H]3CO)[C@H](O)[C@@H](O)[C@H]2O)(C(=O)O)C[C@@H]1O [6′SL, 6′-silalyllactose, reference compound] | – | 103 | 121 | 100 | – | much smaller effect | –
CC(=O)N[C@H]1[C@H](O[C@H]2[C@@H](O)[C@@H](CO)O[C@@H](O[C@H]3[C@H](O)[C@@H](O)C(O)O[C@@H]3CO)[C@@H]2O)O[C@H](CO)[C@@H](O)[C@@H]1O[C@@H]1O[C@H](CO)[C@H](O)[C@H](O)[C@H]1O (stereo partly drawn) [LNT, lacto-N-tetraose] | – | – | 159 | 164 | 163 | increase collagen expression | 139
